Test results published in PMC3855329, “A Fluorescence-Based Thermal Shift Assay Identifies Inhibitors of Mitogen Activated Protein Kinase Kinase 4” (PLoS ONE, 2013).
Read-outs that look alike come from different tables or passages of the source.

Legend:
human MAP2K4-EE [1] = biological target: T1, human MAP2K4-EE (Homo sapiens, UniProt P45985, S257E/T261E); test: Fluorescence-based thermal shift (FTS) assay; type: binding; details: for ΔTm at 10 µM: 10 µM compound, mean ± SD
T1 construct: Human MAP2K4-EE (residues 37–399); His tag (pMCSG7 vector, TEV-cleavable) (N); made in house; host or cells: E. coli KRX cells with pGro7 (GroEL/GroES)
T1 sequence (P45985 37-399 S257E/T261E): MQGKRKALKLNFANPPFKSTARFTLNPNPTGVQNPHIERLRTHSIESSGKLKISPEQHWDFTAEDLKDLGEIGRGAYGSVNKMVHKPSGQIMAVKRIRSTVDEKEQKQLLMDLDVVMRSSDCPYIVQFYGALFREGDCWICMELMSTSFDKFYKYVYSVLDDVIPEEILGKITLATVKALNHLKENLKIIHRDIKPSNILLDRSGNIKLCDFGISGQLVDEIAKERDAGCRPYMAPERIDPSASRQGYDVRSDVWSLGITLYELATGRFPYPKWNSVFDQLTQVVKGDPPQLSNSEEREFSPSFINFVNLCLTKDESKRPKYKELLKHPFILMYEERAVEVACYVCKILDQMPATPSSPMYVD
Description: Small molecule screening by FTS assay was performed as described previously, [23] but with modifications, using an Echo550 (Labcyte) for compound transfer and a Mosquito (TTP Labtech) to dispense protein into 384 well PCR plates. Purified MAP2K4-EE was appropriately diluted in a buffer containing 100 mM Hepes, pH 7.5, 150 mM NaCl. […] The PCR plates were sealed with optical seal, shaken, and centrifuged after protein and compounds were added. […] Curve fitting, melting temperature calculation and report generation on the raw FTS data were performed using software developed by us. Initial screening with the 2000 compound Spectrum Collection was carried out in a pooled fashion. Specifically, 3 compounds were added at 10 µM concentration to each well and wells with positive Tm shift >2°C were then dissected to identify the responsible compound.

[2] = biological target: T2, MAP3K1 activated murine MAP2K4 (MAP2K4-AC) (Mus musculus, UniProt P47809); test: In vitro MAP2K4 kinase assay, p38α MAPK (K53A) substrate, Western blot densitometry; type: biochemical
T2 construct: purchased Millipore 14-377
T2 sequence (P47809 1-397): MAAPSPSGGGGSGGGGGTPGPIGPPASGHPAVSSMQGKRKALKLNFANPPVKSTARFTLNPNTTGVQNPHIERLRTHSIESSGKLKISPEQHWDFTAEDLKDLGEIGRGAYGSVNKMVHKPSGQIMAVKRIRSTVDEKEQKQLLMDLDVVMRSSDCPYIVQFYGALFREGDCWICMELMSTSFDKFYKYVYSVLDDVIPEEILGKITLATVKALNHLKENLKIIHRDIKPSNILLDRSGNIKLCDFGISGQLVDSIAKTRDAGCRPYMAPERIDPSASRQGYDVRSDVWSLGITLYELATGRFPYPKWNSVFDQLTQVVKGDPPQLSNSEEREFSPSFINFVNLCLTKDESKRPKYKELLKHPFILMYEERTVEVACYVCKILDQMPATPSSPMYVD
Description: In addition to activated MAP2K4, the in vitro kinase assay used either kinase dead JNK1-K55M (Abcam # ab95248) or kinase dead p38α MAPK-K53A (generously provided by Dr. Martin Watterson, Northwestern) as the substrate, ATP (Cell Signaling) and kinase assay buffer (25 mM Tris-HCl (pH 7.5), 5 mM beta-glycerophosphate, 2 mM dithiothreitol (DTT), 0.1 mM Na3VO4, 10 mM MgCl2). […] Geraldol, 2′,4′-dihydroxychalcone and 3,2′-dihyrdoxy-4,4′,6′-trimethoxychalcone were purchased from Indofine Chemical Company. All other compounds were purchased from Sigma-Aldrich. To tubes containing 13 µl of 1.5X buffer on ice the assay reagents were added as indicated for a final reaction volume of 20 µL: 25 ng of MAP2K4-AC (stocks of 25 ng/uL were prepared and aliquoted from a 10 ug vial after the supplier concentration was verified using a Nanodrop 1000), inhibitors as denoted (from DMSO stock solutions), 1 µM final ATP, and 1 µg of JNK1 or p38 MAPK. […] All kinase assays were performed twice at separate times.
(§1) Twenty µl of reaction mixtures were separated by sodium dodecyl sulfate-polyacrylamide gel electrophoresis using precast 4–20% gradient gels (Biorad), per the manufacturers' instructions, and transferred onto 0.45 µm nitrocellulose membranes (Biorad). […] Bands were visualized with the aid of chemiluminescence reagents (GE Healthcare) after hybridization with a HRP conjugated rabbit secondary antibody (GE Healthcare). […] The bands were quantified using ImageJ software; normalized inhibitor-response data were plotted using Prism 6 to determine relative IC50 values.

[3] = biological target: T2, MAP3K1 activated murine MAP2K4 (MAP2K4-AC); test: In vitro MAP2K4 kinase assay, JNK1 (K55M) substrate, Western blot densitometry; type: biochemical
Description: In addition to activated MAP2K4, the in vitro kinase assay used either kinase dead JNK1-K55M (Abcam # ab95248) or kinase dead p38α MAPK-K53A (generously provided by Dr. Martin Watterson, Northwestern) as the substrate, ATP (Cell Signaling) and kinase assay buffer (25 mM Tris-HCl (pH 7.5), 5 mM beta-glycerophosphate, 2 mM dithiothreitol (DTT), 0.1 mM Na3VO4, 10 mM MgCl2). […] All other compounds were purchased from Sigma-Aldrich. To tubes containing 13 µl of 1.5X buffer on ice the assay reagents were added as indicated for a final reaction volume of 20 µL: 25 ng of MAP2K4-AC (stocks of 25 ng/uL were prepared and aliquoted from a 10 ug vial after the supplier concentration was verified using a Nanodrop 1000), inhibitors as denoted (from DMSO stock solutions), 1 µM final ATP, and 1 µg of JNK1 or p38 MAPK. […] All kinase assays were performed twice at separate times.
as §1

human MAP2K4-EE [4] = biological target: T1, human MAP2K4-EE; test: Fluorescence-based thermal shift (FTS) assay; type: binding; details: 1 mM ligand
human PCa cells = test system: human PCa cells; parameters: method as in PMID 18339885; details: orthotopically implanted into mice; cited from earlier work
MMP-2 expression = test system: MMP-2 expression; parameters: method as in PMID 19638505; details: prospective administration to humans; cited from earlier work
[5] = kinase dead p38α MAPK-K53A substrate, 1 µM ATP, mean (95% confidence intervals), read-out: IC50-p38
[6] = kinase dead JNK1-K55M substrate, 1 µM ATP, mean (95% confidence intervals), read-out: IC50-JNK1

| ΔTm at 10 µM (human MAP2K4-EE [1]; n = 3, 10 µM) [°C] | ΔTm at 10 µM (human MAP2K4-EE [1]; n = 3, read-out: ΔTm at 10 µM) [°C] | IC50 [2, 5] [µM] | Compound | other results |
| --- | --- | --- | --- | --- |
| 3.67±0.50 | 3.7 | 16.9 | O=C(/C=C/c1ccccc1)c1ccc(O)cc1O [2′,4′-dihydroxychalcone] | – |
| 2.55±0.20 | 2.5 | 0.8 | O=c1c(O)c(-c2ccccc2)oc2cc(O)ccc12 [3,7-dihydroxyflavone] | – |
| 2.26±0.15 | 2.3 | 28.5 | COc1cc(/C=C(\C#N)C(N)=O)cc(CSc2nc3ccccc3s2)c1O [AG825] | IC50 [3, 6]: 25 µM |
| – | – | – | Nc1ncnc2c1ncn2[C@@H]1O[C@H](COP(=O)(O)OP(=O)(O)NP(=O)(O)O)[C@@H](O)[C@H]1O [AMP-PNP] | shift in Tm (ΔTm) (human MAP2K4-EE [4]): highest ΔTm values |
| – | – | – | Nc1ncnc2c1ncn2[C@@H]1O[C@H](COP(=O)(O)OP(=O)(O)OP(=O)(O)O)[C@@H](O)[C@H]1O [ATP] | shift in Tm (ΔTm) (human MAP2K4-EE [4]): > 10 °C |
| – | – | – | O=C1c2ccccc2C(=O)c2c1ccc(O)c2O [Alizarin, 1,2-dihydroxyanthraquinone] | IC50 [2]: 0.9 µM |
| – | 2.8 ± 0.23 | 15.9 | O=c1cc(-c2ccc(O)cc2)oc2cc(O)cc(O)c12 [Apigenin] | IC50 [3, 6]: 20.1 µM |
| 1.78±0.42 | 1.8 | 10.1 | O=c1cc(-c2ccccc2)oc2cc(O)cc(O)c12 [Chrysin, 5,7-dihydroxyflavone] | – |
| – | – | – | O=c1c(-c2ccc(O)cc2)coc2cc(O)ccc12 [Daidzein] | thermal stabilization of MAP2K4 (concentration dependent thermal shift) (human MAP2K4-EE [1]; 1, 10 and 25 µM): no such thermal stabilization effect; inhibition of MAP2K4 activity ([2]; concentrations of up to 200 µM, p38 MAPK (K53A) or JNK1 (K55M) substrates): does not inhibit |
| – | – | – | COc1cc(-c2oc3cc(O)ccc3c(=O)c2O)ccc1O [Geraldol, 3,4′,7-Trihydroxy-3′-methoxyflavone] | IC50 [2]: 0.8 µM |
| – | – | – | NCC(=O)O [L-glycine] | shift in Tm (ΔTm) (human MAP2K4-EE [4]): did not induce thermal stability |
| 6.4±0.06 | > 4 | 0.4 | O=C1c2ccccc2-c2n[nH]c3cccc1c23 [SP600125] | IC50 [3, 6]: 0.7 µM |
| – | – | – | O=c1c(-c2ccc(O)cc2)coc2cc(O)cc(O)c12 [genistein, 4,5,7-trihydroxyisoflavone] | metastasis of human PCa cells (human PCa cells): inhibits the metastasis; MMP-2 expression in prostate tissue (MMP-2 expression): selectively decreases MMP-2 expression |

| Compound | ΔTm at 10 µM (human MAP2K4-EE [1]; n = 3, 10 µM) [°C] | ΔTm at 10 µM (human MAP2K4-EE [1]; n = 3, read-out: ΔTm at 10 µM) [°C] | IC50 [2, 5] [µM] | other results |
| --- | --- | --- | --- | --- |
| Nc1ncnc2c1c(I)cn2[C@@H]1O[C@H](CO)[C@@H](O)[C@H]1O [5-iodotubercidin] | 4.29±0.07 | 4.3 | 0.2 | IC50 [3, 6]: 2.8 µM |
| Cc1ccc(-c2nn(C(C)(C)C)c3ncnc(N)c23)cc1 [PP1] | 2.55±0.03 | 2.5 | – | IC50 [3]: 16.9 µM; IC50 [2]: 13.8 µM |
| CC(C)(C)n1nc(-c2ccc(Cl)cc2)c2c(N)ncnc21 [PP2] | 2.33±0.04 | 2.3 | – | IC50 [3]: 22.3 µM; IC50 [2]: 39.9 µM |
| O=C(CCc1ccc(O)cc1)c1c(O)cc(O)cc1O [Phloretin] | 2.69±0.33 | 2.7 | – | – |
| O=c1c(O)c(-c2ccc(O)c(O)c2)oc2cc(O)cc(O)c12 [Quercetin] | – | 2.75 ± 0.22 | 2 | IC50 [3, 6]: 1.7 µM |
